Experimental data as given in patent US20220267300A1 (NodThera Limited, priority 2019, published 2022).

Each compound was assayed on IL-1β release upon NLRP3 activation in peripheral blood mononuclear cells (PBMC) (assay: PBMC IC50 determination assay (inhibition of IL-1β release)). Settings: Homo sapiens; IL-1β release from LPS-primed PBMC stimulated with ATP (5 mM) or nigericin (10 μM); ELISA or HTRF; corresponding sodium salts evaluated.
Type: cell-based
Procedure: The compounds of the present disclosure were tested for their inhibitory activity against IL-1β release upon NLRP3 activation in peripheral blood mononuclear cells (PBMC).
Protocol A. PBMC were isolated from buffy coats by density gradient centrifugation on Histopaque-1077 (Sigma, cat no. 10771). Isolated cells were seeded into the wells of a 96-well plate and incubated for 3 h with lipopolysaccharide (LPS). Following medium exchange, the compounds of the present disclosure were added (a single compound per well) and the cells were incubated for 30 min. Next, the cells were stimulated either with ATP (5 mM) or nigericin (10 μM) for 1 h and the cell culture media from the wells were collected for further analysis.
The release of IL-1β into the media was determined by a quantitative detection of IL-1β in the media using an IL-1β enzyme-linked immunosorbent assay (ELISA) Ready-SET-Go!, eBioscience cat. No. 88-7261-88. Briefly, in a first step, high affinity binding plates (Corning, Costar 9018 or NUNC Maxisorp Cat No. 44-2404) were coated overnight at 4° C. with specific capture antibody included in the kit (anti-human IL-1β ref. 14-7018-68). Subsequently, plates were blocked with blocking buffer for 1 h at room temperature (rt) and after washing with a buffer (PBS with 0.05% Tween-20) incubated with protein standard and culture media. After 2 h of incubation at rt, plates were washed and incubated with biotinylated detection antibody included in the kit (anti-human IL-1β Biotin ref. 33-7110-68) for 1 h at rt. Plates were washed and incubated with HRP-streptavidin for 30 min at rt and washed again. The signal was developed after addition of 3,3′,5,5′-tetramethylbenzidine-peroxidase (TMB) until colour appeared and the reaction was stopped by 2 M H2SO4. A microplate spectrophotometer (BioTek) was used to detect signals with 450 nm. The detection range of IL-1β ELISA was 2-150 ng/ml.
Protocol B. PBMC were isolated from buffy coats by density gradient centrifugation on Histopaque-1077 (Sigma, cat no. 10771). Isolated cells were seeded into the wells (280,000 cells/well) of a 96-well plate and incubated for 3 h with lipopolysaccharide (LPS, 1 μg/ml diluted 1000× from a 1 mg/ml stock solution). The compounds of the present disclosure were added (a single compound per well) and the cells were incubated for 30 min. Next, the cells were stimulated with ATP (5 mM final concentration diluted 20× from a 100 mM stock solution) for 1 h and the cell culture media from the wells were collected for further analysis.
The release of IL-1β into the media was determined by quantitative detection of IL-1β in the media using HTRF®, CisBio cat. No. 62HIL1BPEH. Briefly, cell culture supernatant were dispensed directly into the assay plate containing antibodies labelled with the HTRF® donor and acceptor. A microplate spectrophotometer (BMG) was used to detect signals at 655 nm and 620 nm. The detection range of IL-1β HTRF® was 39-6500 pg/ml.
`CN1CCCC(N(c2cnn(C)c2)S(N)(=O)=NC(=O)Cc2c3c(cc4c2CCC4)CCC3)C1` (stereo not drawn) [Example 13, N-{Amino[(1-methyl-1H-pyrazol-4-yl)(1-methylpiperidin-3-yl)amino]oxo-lambda6-sulfanylidene}-2-(1,2,3,5,6,7-hexahydro-s-indacen-4-yl)acetamide] showed an IC50 of 3 to 10 µM. `Cn1cc(N(C2CCCN(C(=O)OCc3ccccc3)C2)S(=O)(=O)NC(=O)Cc2c3c(cc4c2CCC4)CCC3)cn1` (stereo not drawn) [Example 19, Benzyl 3-({[2-(1,2,3,5,6,7-hexahydro-s-indacen-4-yl)acetamido]sulfonyl}(1-methyl-1H-pyrazol-4-yl)amino)piperidine-1-carboxylate] gave an IC50 of 3 to 10 µM. `CN1CCCC(N(c2cnn(C)c2)S(=O)(=O)NC(=O)Cc2c3c(cc4c2CCC4)CCC3)C1` (stereo not drawn) [Example 17, 2-(1,2,3,5,6,7-Hexahydro-s-indacen-4-yl)-N-[(1-methyl-1H-pyrazol-4-yl)(1-methylpiperidin-3-yl)sulfamoyl]acetamide] gave an IC50 of less than 1 µM. `Cn1cc(N(CCNCC(F)F)S(=O)(=O)NC(=O)Cc2c3c(cc4c2CCC4)CCC3)cn1` [Example 24, N-({2-[(2,2-Difluoroethyl)amino]ethyl}(1-methyl-1H-pyrazol-4-yl)sulfamoyl)-2-(1,2,3,5,6,7-hexahydro-s-indacen-4-yl)acetamide] showed an IC50 of less than 1 µM. With `CC(C)c1cc(CC(=O)NS(=O)(=O)N(C[C@@H]2CCCN2C)c2cnn(C)c2)cc(C(C)C)c1F` [Example 9, 2-[4-Fluoro-3,5-bis(propan-2-yl)phenyl]-N-[(1-methyl-1H-pyrazol-4-yl)({[(2S)-1-methylpyrrolidin-2-yl]methyl})sulfamoyl]acetamide] the IC50 was 10 to 50 µM. `Cn1cc(N(CCCNC(=O)OCc2ccccc2)S(=O)(=O)NC(=O)Cc2c3c(cc4c2CCC4)CCC3)cn1` [Example 27, Benzyl N-[3-[[2-(1,2,3,5,6,7-hexahydro-s-indacen-4-yl)acetyl]sulfamoyl-(1-methylpyrazol-4-yl)amino]propyl]carbamate] was tested, and the IC50 was 1 to 3 µM. With `CC(=O)NCCN(c1cnn(C)c1)S(=O)(=O)NC(=O)Cc1c2c(cc3c1CCC3)CCC2` [Example 23, N-[(2-Acetamidoethyl)(1-methyl-1H-pyrazol-4-yl)sulfamoyl]-2-(1,2,3,5,6,7-hexahydro-s-indacen-4-yl)acetamide] the IC50 was 10 to 50 µM. `CN1CCCC(N(c2cnn(C)c2)S(=O)(=O)NC(=O)Cc2cc(C(F)(F)F)cc(C(F)(F)F)c2)C1` (stereo not drawn) [Example 6, 2-[3,5-Bis(trifluoromethyl)phenyl]-N-[(1-methyl-1H-pyrazol-4-yl)(1-methylpiperidin-3-yl)sulfamoyl]acetamide] showed an IC50 of less than 1 µM. `CC(C)c1cccc(CC(=O)NS(=O)(=O)N(c2cnn(C)c2)C2CCCN(C)C2)c1` (stereo not drawn) [Example 53] gave an IC50 of no less than 50 µM. Compound `Cc1cc(C)cc(CC(=O)NS(=O)(=O)N(c2cnn(C)c2)C2CCCN(C)C2)c1` (stereo not drawn) [Example 32] has an IC50 of no less than 50 µM. In the case of `CC(C)c1cc(F)cc(C(C)C)c1CC(=O)NS(=O)(=O)N(c1cnn(C)c1)C1CCOCC1` [Example 30], the IC50 is reported as no less than 50 µM. `COc1cc(-c2cc(F)cc(C(C)C)c2CC(=O)NS(=O)(=O)N(c2cnn(C)c2)C2CCCN(C)C2)ccn1` (stereo not drawn) [Example 28, 2-[4-Fluoro-2-isopropyl-6-(2-methoxy-4-pyridyl)phenyl]-N-[(1-methyl-3-piperidyl)-(1-methylpyrazol-4-yl)sulfamoyl]acetamide] was tested, and the IC50 was 3 to 10 µM.
